What was measured:
Assay in all cases: ATPase profile (ATP acyl phosphate probe)
Format in all cases: binding
AARS = target: T1, AARS (Homo sapiens, UniProt P49588); settings: SEQ ID NO: 1, ATP BS
T1 construct: to get the native cell lysate; host or cells: A375 cell lysate

ABCE1 = target: T2, ABCE1 (Homo sapiens, UniProt P61221); settings: ABCE1, SEQ ID NO: 15, ATP BS
T2 construct: to get the native cell lysate; host or cells: A375 cell lysate

AK2 = target: T3, AK2 (Homo sapiens, UniProt P54819); settings: AK2, SEQ ID NO: 33, ATP BS
T3 construct: to get the native cell lysate; host or cells: A375 cell lysate

GATB = target: T4, GATB (Homo sapiens, UniProt O75879)
T4 construct: endogenous in cells; host or cells: A375 cell lysate
T4 sequence (O75879 31-557): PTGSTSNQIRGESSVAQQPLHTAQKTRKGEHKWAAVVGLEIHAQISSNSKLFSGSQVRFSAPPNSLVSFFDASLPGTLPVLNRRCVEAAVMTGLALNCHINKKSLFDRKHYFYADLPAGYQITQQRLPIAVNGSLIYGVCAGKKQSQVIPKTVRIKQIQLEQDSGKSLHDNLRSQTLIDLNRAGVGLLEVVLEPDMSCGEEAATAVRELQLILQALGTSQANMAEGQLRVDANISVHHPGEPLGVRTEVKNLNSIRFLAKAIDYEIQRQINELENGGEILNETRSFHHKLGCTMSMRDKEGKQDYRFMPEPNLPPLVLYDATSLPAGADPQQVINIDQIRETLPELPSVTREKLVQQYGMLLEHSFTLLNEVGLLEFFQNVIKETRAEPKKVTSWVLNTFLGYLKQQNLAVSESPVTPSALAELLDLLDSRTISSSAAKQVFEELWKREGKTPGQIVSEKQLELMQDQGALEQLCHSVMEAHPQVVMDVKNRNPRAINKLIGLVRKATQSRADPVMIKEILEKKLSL
T4 sequence (Q9H0R6 whole entry partner): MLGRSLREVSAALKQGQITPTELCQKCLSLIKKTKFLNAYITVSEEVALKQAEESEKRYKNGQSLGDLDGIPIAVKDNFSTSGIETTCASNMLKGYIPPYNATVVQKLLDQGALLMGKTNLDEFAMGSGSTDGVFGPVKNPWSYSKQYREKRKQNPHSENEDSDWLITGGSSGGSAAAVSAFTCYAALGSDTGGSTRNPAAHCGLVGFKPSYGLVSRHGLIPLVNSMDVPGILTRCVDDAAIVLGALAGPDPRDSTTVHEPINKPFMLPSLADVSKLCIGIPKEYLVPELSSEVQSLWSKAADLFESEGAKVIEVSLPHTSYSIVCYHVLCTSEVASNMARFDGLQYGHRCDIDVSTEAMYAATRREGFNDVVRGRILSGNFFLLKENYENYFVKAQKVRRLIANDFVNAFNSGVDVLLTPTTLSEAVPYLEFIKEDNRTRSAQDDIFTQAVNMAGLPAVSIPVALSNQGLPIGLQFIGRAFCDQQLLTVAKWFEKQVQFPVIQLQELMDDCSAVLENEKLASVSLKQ
T4 sequence (O43716 58-136 partner): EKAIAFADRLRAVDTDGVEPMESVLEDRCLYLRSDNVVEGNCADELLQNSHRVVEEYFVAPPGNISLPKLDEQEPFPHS

HSP90B2P, TRA1 = target: T5, HSP90B2P, TRA1 (Homo sapiens, UniProt P14625); settings: TRA1, SEQ ID NO: 99, ATP BS, read-out: Inhibition (%) by 1 μM Z36-MP5
T5 construct: to get the native cell lysate; endogenous in cells; host or cells: A375

MCM4 = target: T6, MCM4 (Homo sapiens, UniProt P33991); settings: MCM4, SEQ ID NO: 118, ATP BS; read-out: Inhibition (%) by 1 μM Z36-MP5
T6 construct: to get the native cell lysate; endogenous in cells; host or cells: A375

NRK1 = target: T7, NRK1 (Homo sapiens, UniProt Q9NWW6); settings: NRK1, SEQ ID NO: 137, ATP BS
T7 construct: to get the native cell lysate; endogenous in cells; host or cells: A375
T7 sequence (Q9NWW6 whole entry): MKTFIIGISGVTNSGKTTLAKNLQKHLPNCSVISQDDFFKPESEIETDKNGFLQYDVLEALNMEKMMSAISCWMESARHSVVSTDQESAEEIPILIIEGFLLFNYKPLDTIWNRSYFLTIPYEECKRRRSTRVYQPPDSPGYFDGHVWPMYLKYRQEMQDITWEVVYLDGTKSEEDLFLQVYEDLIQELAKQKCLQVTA

OLA1 = target: T8, OLA1 (Homo sapiens, UniProt Q9NTK5); settings: OLA1, SEQ ID NO: 150, ATP BS
T8 construct: to get the native cell lysate; endogenous in cells; host or cells: A375

POLR3A = POLR3A (Homo sapiens, UniProt O14802); settings: SEQ ID NO: 164, ATP BS
RFC4 = target: T9, RFC4 (Homo sapiens, UniProt P35249); settings: RFC4, SEQ ID NO: 185, ATP BS
T9 construct: to get the native cell lysate; endogenous in cells; host or cells: A375 cell lysate
T9 sequence (P35249 whole entry): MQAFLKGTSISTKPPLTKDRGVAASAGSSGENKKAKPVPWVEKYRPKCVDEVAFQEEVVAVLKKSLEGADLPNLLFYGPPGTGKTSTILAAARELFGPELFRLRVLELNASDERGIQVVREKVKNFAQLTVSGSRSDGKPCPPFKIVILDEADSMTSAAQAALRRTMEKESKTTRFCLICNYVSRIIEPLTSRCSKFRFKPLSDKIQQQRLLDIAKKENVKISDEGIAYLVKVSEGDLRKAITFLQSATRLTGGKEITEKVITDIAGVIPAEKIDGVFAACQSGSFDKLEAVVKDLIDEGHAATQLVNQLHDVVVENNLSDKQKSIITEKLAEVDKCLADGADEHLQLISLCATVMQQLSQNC
T9 sequence (P40938 whole entry partner): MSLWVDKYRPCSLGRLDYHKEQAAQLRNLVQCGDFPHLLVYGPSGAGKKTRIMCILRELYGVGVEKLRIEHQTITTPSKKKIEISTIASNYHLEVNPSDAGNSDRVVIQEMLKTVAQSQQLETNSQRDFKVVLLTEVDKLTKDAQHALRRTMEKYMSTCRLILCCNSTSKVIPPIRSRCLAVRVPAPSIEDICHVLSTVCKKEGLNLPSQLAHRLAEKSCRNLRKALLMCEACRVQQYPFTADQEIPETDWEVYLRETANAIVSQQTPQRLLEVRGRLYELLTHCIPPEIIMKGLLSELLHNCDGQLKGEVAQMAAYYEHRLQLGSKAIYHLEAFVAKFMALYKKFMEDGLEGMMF
T9 sequence (P35250 whole entry partner): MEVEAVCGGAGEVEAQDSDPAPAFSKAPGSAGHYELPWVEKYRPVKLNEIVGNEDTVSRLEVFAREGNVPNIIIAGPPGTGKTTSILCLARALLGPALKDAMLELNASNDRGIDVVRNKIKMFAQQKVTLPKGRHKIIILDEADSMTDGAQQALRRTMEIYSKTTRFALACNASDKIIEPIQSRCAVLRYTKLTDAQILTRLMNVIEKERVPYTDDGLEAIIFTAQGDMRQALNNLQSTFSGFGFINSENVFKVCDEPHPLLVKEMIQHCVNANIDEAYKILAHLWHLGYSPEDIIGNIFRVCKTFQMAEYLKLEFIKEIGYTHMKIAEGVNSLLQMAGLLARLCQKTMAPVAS
T9 sequence (P40937 whole entry partner): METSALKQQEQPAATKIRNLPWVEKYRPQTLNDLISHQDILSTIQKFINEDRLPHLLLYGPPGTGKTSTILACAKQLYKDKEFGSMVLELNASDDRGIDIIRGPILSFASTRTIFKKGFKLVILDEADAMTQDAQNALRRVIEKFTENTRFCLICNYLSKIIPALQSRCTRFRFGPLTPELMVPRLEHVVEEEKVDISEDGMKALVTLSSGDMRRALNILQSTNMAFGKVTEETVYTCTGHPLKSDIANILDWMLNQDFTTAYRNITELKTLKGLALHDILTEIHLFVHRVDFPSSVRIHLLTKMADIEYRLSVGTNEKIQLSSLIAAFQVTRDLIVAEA
T9 sequence (P35251 whole entry partner): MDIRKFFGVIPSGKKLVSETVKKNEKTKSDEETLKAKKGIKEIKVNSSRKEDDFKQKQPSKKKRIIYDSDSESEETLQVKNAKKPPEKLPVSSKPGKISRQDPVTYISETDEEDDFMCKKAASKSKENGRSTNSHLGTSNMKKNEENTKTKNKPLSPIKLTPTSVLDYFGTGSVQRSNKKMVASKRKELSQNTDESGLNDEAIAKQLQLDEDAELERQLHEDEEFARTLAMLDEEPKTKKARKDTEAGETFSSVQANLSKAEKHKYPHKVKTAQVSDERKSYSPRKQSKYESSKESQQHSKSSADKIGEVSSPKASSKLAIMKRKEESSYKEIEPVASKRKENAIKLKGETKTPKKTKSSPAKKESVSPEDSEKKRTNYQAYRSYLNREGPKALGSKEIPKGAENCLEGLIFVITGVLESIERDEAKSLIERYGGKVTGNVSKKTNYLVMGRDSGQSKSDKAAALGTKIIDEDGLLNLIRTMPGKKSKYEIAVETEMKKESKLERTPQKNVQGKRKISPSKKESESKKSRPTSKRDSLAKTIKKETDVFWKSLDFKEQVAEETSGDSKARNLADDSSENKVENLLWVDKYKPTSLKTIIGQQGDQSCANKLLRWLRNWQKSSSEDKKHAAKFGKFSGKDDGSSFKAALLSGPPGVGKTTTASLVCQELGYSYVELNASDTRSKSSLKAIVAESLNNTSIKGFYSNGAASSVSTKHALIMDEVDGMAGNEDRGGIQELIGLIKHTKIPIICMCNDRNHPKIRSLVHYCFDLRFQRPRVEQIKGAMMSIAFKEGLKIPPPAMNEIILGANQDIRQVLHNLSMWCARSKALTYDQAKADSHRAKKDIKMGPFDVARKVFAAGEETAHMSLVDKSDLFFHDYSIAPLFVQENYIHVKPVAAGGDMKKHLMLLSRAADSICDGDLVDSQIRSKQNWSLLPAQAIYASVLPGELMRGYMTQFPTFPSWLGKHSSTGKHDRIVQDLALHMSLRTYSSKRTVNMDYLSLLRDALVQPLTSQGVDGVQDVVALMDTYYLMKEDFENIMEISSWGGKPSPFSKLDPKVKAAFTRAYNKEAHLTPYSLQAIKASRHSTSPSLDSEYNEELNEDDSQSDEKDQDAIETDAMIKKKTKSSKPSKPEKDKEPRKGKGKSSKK

VPS4A, VPS4B = settings: SEQ ID NO: 229, ATP BS

T1 sequence (P49588 whole entry): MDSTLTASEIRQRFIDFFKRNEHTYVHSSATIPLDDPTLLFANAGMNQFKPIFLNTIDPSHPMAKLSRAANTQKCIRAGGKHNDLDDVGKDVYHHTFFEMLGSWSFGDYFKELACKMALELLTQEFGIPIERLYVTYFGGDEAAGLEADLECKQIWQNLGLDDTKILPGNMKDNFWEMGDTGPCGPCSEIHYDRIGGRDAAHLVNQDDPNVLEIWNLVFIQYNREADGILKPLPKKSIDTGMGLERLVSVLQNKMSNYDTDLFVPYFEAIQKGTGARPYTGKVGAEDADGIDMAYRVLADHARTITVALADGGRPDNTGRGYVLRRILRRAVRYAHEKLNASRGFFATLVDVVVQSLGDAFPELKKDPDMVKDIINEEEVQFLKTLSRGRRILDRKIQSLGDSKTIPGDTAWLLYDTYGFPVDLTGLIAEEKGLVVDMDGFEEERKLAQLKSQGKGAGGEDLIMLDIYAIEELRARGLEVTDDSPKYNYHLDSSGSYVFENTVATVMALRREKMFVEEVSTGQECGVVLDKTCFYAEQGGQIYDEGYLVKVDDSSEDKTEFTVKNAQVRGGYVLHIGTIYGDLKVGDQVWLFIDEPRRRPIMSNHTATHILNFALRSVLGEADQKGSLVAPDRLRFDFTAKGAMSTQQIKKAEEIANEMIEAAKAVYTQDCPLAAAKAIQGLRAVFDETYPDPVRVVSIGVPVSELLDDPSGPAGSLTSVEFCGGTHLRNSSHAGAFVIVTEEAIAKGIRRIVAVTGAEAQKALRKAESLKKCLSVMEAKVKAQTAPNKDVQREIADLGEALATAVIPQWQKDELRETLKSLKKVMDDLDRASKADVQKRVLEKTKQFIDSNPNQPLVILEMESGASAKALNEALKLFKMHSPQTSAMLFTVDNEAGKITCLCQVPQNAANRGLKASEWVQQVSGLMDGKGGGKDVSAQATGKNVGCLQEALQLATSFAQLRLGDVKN

Structure (SMILES): Cn1c(=O)[nH]c2ccc(-c3cccc(C(=O)NC4CCn5ccnc5C4)c3)cc21 (stereo not drawn) [Z36-MP5, 3-(3-methyl-2-oxo-2,3-dihydro-1H-benzo[d]imidazol-5-yl)-N-(5,6,7,8-tetrahydroimidazo[1,2-a]pyridin-7-yl)benzamide]
- Inhibition (%) by 1 μM Z36-MP5 (AARS): −29.97%
- Inhibition (%) by 1 μM Z36-MP5 (ABCE1): −4.76%
- Inhibition (%) by 1 μM Z36-MP5 (AK2): −4.75%
- Inhibition (%) by 1 μM Z36-MP5 (GATB; SEQ ID NO: 83, ATP BS): −15.35%
- Inhibition (%) by 1 μM Z36-MP5 (GATB; SEQ ID NO: 84, ATP BS): −4.32%
- inhibition at 1 µM (HSP90B2P, TRA1): -6.72%
- inhibition at 1 µM (MCM4): 4.98%
- Inhibition (%) by 1 μM Z36-MP5 (NRK1): 0.34%
- Inhibition (%) by 1 μM Z36-MP5 (OLA1): −0.68%
- Inhibition (%) by 1 μM Z36-MP5 (POLR3A): 4.31%
- Inhibition (%) by 1 μM Z36-MP5 (RFC4): −6.66%
- Inhibition (%) by 1 μM Z36-MP5 (VPS4A, VPS4B): −2.55%
